# Key:
# Assay type in all cases: cell-based
# [1] = molecular target: T1, MRGPRX2 (Homo sapiens, UniProt Q96LB1); assay: MRGPRX2 β-Arrestin assay; design: host or cells: PathHunter CHO-K1; conditions: PathHunter CHO-K1 MRGPRX2 β-Arrestin cell line; agonist Cortistatin 14 0.25 μM
# T1 sequence (Q96LB1 1-330): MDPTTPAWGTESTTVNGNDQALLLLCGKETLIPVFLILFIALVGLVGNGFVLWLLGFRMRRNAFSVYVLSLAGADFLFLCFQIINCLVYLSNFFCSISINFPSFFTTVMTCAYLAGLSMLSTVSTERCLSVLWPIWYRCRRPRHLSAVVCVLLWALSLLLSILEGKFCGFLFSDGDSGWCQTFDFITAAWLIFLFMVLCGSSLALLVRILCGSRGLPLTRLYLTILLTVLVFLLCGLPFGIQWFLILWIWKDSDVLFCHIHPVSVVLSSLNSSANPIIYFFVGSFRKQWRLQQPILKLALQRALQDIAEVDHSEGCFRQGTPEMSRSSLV
# Outline: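 PathHunter CHO-K1 cells expressing ProLink-tagged MRGPRX2 and enzyme-acceptor-tagged β-arrestin were preincubated with serially diluted compound 1 h at 37 °C, then stimulated with 0.25 μM cortistatin 14 (final) for 90 min. β-arrestin recruitment was read by luminescence; IC50 from 3- or 4-parameter Hill fits normalised to DMSO and reference antagonist controls.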
# [2] = molecular target: T1, MRGPRX2; assay: MRGPRX2 IP1 HTRF assay; design: host or cells: CHO-K1; conditions: CHO-K1 cells stably expressing human MRGPRX2; IP1 accumulation, agonist Cortistatin 14 1 μM
# [3] = molecular target: T1, MRGPRX2; assay: MRGPRX2 FLIPR calcium mobilization assay; design: host or cells: CHO-K1; conditions: CHO-K1 cells stably expressing human MRGPRX2; Ca2+ release, agonist Cortistatin-14 at EC80
# Outline: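 CHO-K1 cells stably expressing human MRGPRX2, loaded with Calcium 6 dye, pre-incubated 30 min at room temperature with test compound in HBSS/20 mM HEPES pH 7.4. Then challenged with Cortistatin-14 at EC80; baseline-adjusted peak fluorescence over 110 s fitted to a Hill equation for IC50.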
Structure (SMILES),IC50 [1],IC50 [2],IC50 [3]
"NS(=O)(=O)N1CCC(CNc2cc(C(F)(F)F)nc3ccc(Cl)cc23)(c2ccccc2)CC1 [Example 12, 4-(((6-Chloro-2-(trifluoromethyl)quinolin-4-yl)amino)methyl)-4-phenylpiperidine-1-sulfonamide]",0.1 to 100 nM,0.1 to 100 nM,0.1 to 100 nM
"NS(=O)(=O)N1CC(CNc2cc(C(F)(F)F)nc3ccc(Cl)cc23)(c2ncccc2F)C1 [Example 43, 3-(((6-Chloro-2-(trifluoromethyl)quinolin-4-yl)amino)methyl)-3-(3-fluoropyridin-2-yl)azetidine-1-sulfonamide]",0.1 to 100 nM,0.1 to 100 nM,0.1 to 100 nM
"NS(=O)(=O)N1CC(CNc2cc(C(F)F)nc3ccc(Cl)cc23)(c2ccc(F)cc2)C1 [Example 5, 3-(((6-Chloro-2-(difluoromethyl)quinolin-4-yl)amino)methyl)-3-(4-fluorophenyl)azetidine-1-sulfonamide]",0.1 to 100 nM,0.1 to 100 nM,0.1 to 100 nM
"NC(=O)N1CC(CNc2cc(C(F)(F)F)nc3ccc(Cl)cc23)(n2cc(Br)cn2)C1 [Example 41, 3-(4-Bromo-1H-pyrazol-1-yl)-3-(((6-chloro-2-(trifluoromethyl)quinolin-4-yl)amino)methyl)azetidine-1-carboxamide]",0.1 to 100 nM,0.1 to 100 nM,0.1 to 100 nM
"NS(=O)(=O)N1CC(CNc2cc(C(F)(F)F)nc3ccc(Cl)cc23)(c2ccc(Cl)cn2)C1 [Example 29, 3-(((6-Chloro-2-(trifluoromethyl)quinolin-4-yl)amino)methyl)-3-(5-chloropyridin-2-yl)azetidine-1-sulfonamide]",0.1 to 100 nM,0.1 to 100 nM,0.1 to 100 nM
"NS(=O)(=O)N1CC(CNc2cc(C(F)(F)F)nc3ccc(Cl)cc23)(c2cccc(F)c2)C1 [Example 31, 3-(((6-Chloro-2-(trifluoromethyl)quinolin-4-yl)amino)methyl)-3-(3-fluorophenyl)azetidine-1-sulfonamide]",0.1 to 100 nM,0.1 to 100 nM,0.1 to 100 nM
"O=C1CC(CNc2cc(C(F)(F)F)nc3ccc(Cl)cc23)(c2ccccc2)CN1 (stereo not drawn) [Example 8, 4-(((6-Chloro-2-(trifluoromethyl)quinolin-4-yl)amino)methyl)-4-phenylpyrrolidin-2-one]",0.1 to 100 nM,0.1 to 100 nM,0.1 to 100 nM

# Other lines, results leading:
IC50 [1],IC50 [2],IC50 [3],Structure (SMILES)
0.1 to 100 nM,0.1 to 100 nM,0.1 to 100 nM,"CNC(=O)N1CC(CNc2cc(C(F)(F)F)nc3ccc(Cl)cc23)(n2cc(F)cn2)C1 [Example 44, 3-(((6-Chloro-2-(trifluoromethyl)quinolin-4-yl)amino)methyl)-3-(4-fluoro-1H-pyrazol-1-yl)-N-methylazetidine-1-carboxamide]"
0.1 to 100 nM,0.1 to 100 nM,0.1 to 100 nM,"[2H]C([2H])([2H])NC(=O)N1CC(CNc2cc(C(F)(F)F)nc3ccc(Cl)cc23)(n2cc(Cl)cn2)C1 [Example 30, 3-(4-Chloro-1H-pyrazol-1-yl)-3-(((6-chloro-2-(trifluoromethyl)quinolin-4-yl)amino)methyl)-N-(methyl-d3)azetidine-1-carboxamide]"
0.1 to 100 nM,0.1 to 100 nM,0.1 to 100 nM,"O=C(NC1CC1)N1CC(CNc2cc(C(F)(F)F)nc3ccc(Cl)cc23)(n2cc(F)cn2)C1 [Example 27, 3-(((6-Chloro-2-(trifluoromethyl)quinolin-4-yl)amino)methyl)-N-cyclopropyl-3-(4-fluoro-1H-pyrazol-1-yl)azetidine-1-carboxamide]"
